From ChEMBL document CHEMBL1201862, “PubChem BioAssay data set” (2004)
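Five compound concentrations were applied to cells in 96-well plates for 48 hours; endpoints were derived by simple linear interpolation of the resulting dose-response curve. Here, GI50 denotes the concentration required for 50% inhibition of growth.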 Calls of active or inactive are those of the source. Cut-off read from the data, not from the text of the source: active = GI50 up to about 1.1 µM and inactive = higher.

Key:
Experiment in all cases: growth of human tumour cells (NCI), 48 h
[1] = system: SF-539
[2] = system: OVCAR-3
[3] = system: HCT-116
[4] = system: HOP-62
[5] = system: SK-MEL-2
[6] = system: HCC 2998
[7] = system: KM12
[8] = system: A549
[9] = system: DLD-1
[10] = system: NCI-H460
[11] = system: SR
[12] = system: XF498
[13] = system: HL-60
[14] = system: CAKI-1
[15] = system: 786-0
[16] = system: MOLT-4
[17] = system: DMS-114

SMILES | GI50 [1] | GI50 [2] | GI50 [3] | GI50 [4] | GI50 [5] | GI50 [6] | GI50 [7] | GI50 [8] | GI50 [9] | GI50 [10] | GI50 [11] | GI50 [12] | GI50 [13] | GI50 [14] | GI50 [15] | GI50 [16] | GI50 [17]
O=C(/C=C/c1ccccc1O)c1cccs1 | > 100 µM (inactive) | > 100 µM (inactive) | > 100 µM (inactive) | > 100 µM (inactive) | > 100 µM (inactive) | > 100 µM (inactive) | > 100 µM (inactive) | > 100 µM (inactive) | > 100 µM (inactive) | > 100 µM (inactive) | > 100 µM (inactive) | > 100 µM (inactive) | > 100 µM (inactive) | > 100 µM (inactive) | > 100 µM (inactive) | > 100 µM (inactive) | –
O=C1C(=O)N(c2cc(Cl)ccc2Cl)C(=O)C(=O)C1c1nc2ccccc2o1 | > 100 µM (inactive) | > 67.5 µM (inactive) | > 100 µM (inactive) | > 100 µM (inactive) | > 100 µM (inactive) | > 100 µM (inactive) | > 31.6 µM (inactive) | > 100 µM (inactive) | > 100 µM (inactive) | > 100 µM (inactive) | – | > 100 µM (inactive) | 39.1 µM (inactive) | > 100 µM (inactive) | > 100 µM (inactive) | 30.1 µM (inactive) | > 89.1 µM (inactive)
Cc1nc(-c2nc([N+](=O)[O-])c([N+](=O)[O-])[nH]2)cs1 | > 100 µM (inactive) | > 100 µM (inactive) | > 100 µM (inactive) | > 100 µM (inactive) | > 100 µM (inactive) | > 100 µM (inactive) | > 100 µM (inactive) | > 100 µM (inactive) | > 100 µM (inactive) | > 100 µM (inactive) | > 100 µM (inactive) | > 100 µM (inactive) | > 100 µM (inactive) | > 100 µM (inactive) | – | > 100 µM (inactive) | > 100 µM (inactive)
COc1ccc(C2=CC3CCC2C3)cc1 (stereo unspecified) | > 100 µM (inactive) | > 100 µM (inactive) | > 100 µM (inactive) | > 100 µM (inactive) | > 100 µM (inactive) | – | > 100 µM (inactive) | > 100 µM (inactive) | > 100 µM (inactive) | > 100 µM (inactive) | > 100 µM (inactive) | > 100 µM (inactive) | 50 µM (inactive) | > 100 µM (inactive) | > 100 µM (inactive) | > 100 µM (inactive) | –
CC1NOC(=O)C1/N=N/c1ccccc1Cl (stereo unspecified) | 24.5 µM (inactive) | 33.8 µM (inactive) | 37.2 µM (inactive) | 92.3 µM (inactive) | 25.4 µM (inactive) | 48.3 µM (inactive) | 64.7 µM (inactive) | 63.7 µM (inactive) | 39.4 µM (inactive) | 45.1 µM (inactive) | – | 27.9 µM (inactive) | 20 µM (inactive) | 25.5 µM (inactive) | 26.5 µM (inactive) | > 10 µM (inactive) | 34.7 µM (inactive)
O=C(O)C1Cc2[nH]c3ccccc3c2C2CCCC12 (stereo unspecified) | > 100 µM (inactive) | > 100 µM (inactive) | > 100 µM (inactive) | – | > 100 µM (inactive) | > 100 µM (inactive) | > 100 µM (inactive) | > 100 µM (inactive) | > 100 µM (inactive) | > 100 µM (inactive) | > 100 µM (inactive) | > 100 µM (inactive) | – | > 100 µM (inactive) | > 100 µM (inactive) | > 100 µM (inactive) | > 100 µM (inactive)
N=c1oc2cc(O)c(O)cc2cc1C(N)=O | > 100 µM (inactive) | > 100 µM (inactive) | > 100 µM (inactive) | > 100 µM (inactive) | > 100 µM (inactive) | > 100 µM (inactive) | > 100 µM (inactive) | > 100 µM (inactive) | > 100 µM (inactive) | > 100 µM (inactive) | – | > 100 µM (inactive) | > 10 µM (inactive) | > 100 µM (inactive) | 43.5 µM (inactive) | 84.9 µM (inactive) | > 100 µM (inactive)
Oc1cccc2nc3cc(CN4CCOCC4)c(CN4CCOCC4)cc3nc12 | 38.3 µM (inactive) | 42.2 µM (inactive) | 52.2 µM (inactive) | 52 µM (inactive) | > 100 µM (inactive) | 50.8 µM (inactive) | 67 µM (inactive) | 40.5 µM (inactive) | 61 µM (inactive) | 54.3 µM (inactive) | 40.2 µM (inactive) | > 100 µM (inactive) | 33.3 µM (inactive) | > 100 µM (inactive) | 59.7 µM (inactive) | 31.9 µM (inactive) | –
COCCOCCOCCOc1cccc2c1C(=O)c1cccc(OCCOCCOCCOC)c1C2=O | > 100 µM (inactive) | 92.5 µM (inactive) | > 100 µM (inactive) | > 100 µM (inactive) | – | > 100 µM (inactive) | – | > 100 µM (inactive) | > 100 µM (inactive) | 70.6 µM (inactive) | – | > 100 µM (inactive) | > 100 µM (inactive) | > 100 µM (inactive) | > 100 µM (inactive) | 71.8 µM (inactive) | > 100 µM (inactive)
CNC(C)Cc1ccc(O)cc1 (stereo unspecified) | > 100 µM (inactive) | > 100 µM (inactive) | > 100 µM (inactive) | > 100 µM (inactive) | > 100 µM (inactive) | > 100 µM (inactive) | > 100 µM (inactive) | > 100 µM (inactive) | > 100 µM (inactive) | > 100 µM (inactive) | > 100 µM (inactive) | > 100 µM (inactive) | > 100 µM (inactive) | > 100 µM (inactive) | > 100 µM (inactive) | > 100 µM (inactive) | > 100 µM (inactive)
O=C1NN=C(c2ccc([N+](=O)[O-])cc2)C1n1nc(-c2ccccc2)c2ccccc2c1=O (stereo unspecified) | > 100 µM (inactive) | > 100 µM (inactive) | > 63.8 µM (inactive) | > 100 µM (inactive) | > 100 µM (inactive) | > 100 µM (inactive) | > 100 µM (inactive) | > 80 µM (inactive) | > 50.7 µM (inactive) | > 92.5 µM (inactive) | > 68.2 µM (inactive) | > 100 µM (inactive) | > 45.6 µM (inactive) | > 100 µM (inactive) | > 100 µM (inactive) | > 94.2 µM (inactive) | –
c1ccc(N2N=C(c3ccco3)CC2c2ccco2)cc1 (stereo unspecified) | > 100 µM (inactive) | 59.6 µM (inactive) | 32.5 µM (inactive) | > 100 µM (inactive) | > 100 µM (inactive) | – | 47.4 µM (inactive) | > 100 µM (inactive) | – | 66.1 µM (inactive) | 30.3 µM (inactive) | > 100 µM (inactive) | 25.2 µM (inactive) | – | > 100 µM (inactive) | 20.5 µM (inactive) | 49.2 µM (inactive)
COc1cccc(-c2nccc3c(OCc4ccccc4)c(OC)c(OC)cc23)c1 | > 100 µM (inactive) | > 100 µM (inactive) | 7.57 µM (inactive) | > 100 µM (inactive) | 30.1 µM (inactive) | 58.3 µM (inactive) | > 100 µM (inactive) | > 100 µM (inactive) | 7.74 µM (inactive) | – | 6.68 µM (inactive) | > 100 µM (inactive) | 4.25 µM (inactive) | – | > 10 µM (inactive) | 5.53 µM (inactive) | 35.6 µM (inactive)
C#C[C@H]1CCCCCC1O (stereo partly specified) | > 100 µM (inactive) | > 100 µM (inactive) | > 100 µM (inactive) | > 100 µM (inactive) | > 100 µM (inactive) | > 100 µM (inactive) | > 100 µM (inactive) | > 100 µM (inactive) | > 100 µM (inactive) | > 100 µM (inactive) | 97.7 µM (inactive) | > 100 µM (inactive) | 36.1 µM (inactive) | > 100 µM (inactive) | > 100 µM (inactive) | > 100 µM (inactive) | > 100 µM (inactive)
C1=CC(=NN=P(c2ccccc2)(c2ccccc2)c2ccccc2)C=C1 | – | > 100 µM (inactive) | – | > 100 µM (inactive) | > 100 µM (inactive) | > 100 µM (inactive) | > 100 µM (inactive) | > 100 µM (inactive) | > 100 µM (inactive) | > 100 µM (inactive) | – | > 100 µM (inactive) | 98.2 µM (inactive) | > 100 µM (inactive) | > 100 µM (inactive) | > 100 µM (inactive) | 51.9 µM (inactive)
COc1cc([C@@H]2c3cc4c(cc3[C@@H](NC(=O)c3cccc(N)c3)C3COC(=O)[C@@H]32)OCO4)cc(OC)c1O (stereo partly specified) | 0.284 µM (active) | 4.35 µM (inactive) | 2.28 µM (inactive) | 0.0231 µM (active) | 3.3 µM (inactive) | 2.21 µM (inactive) | 2.42 µM (inactive) | 0.0465 µM (active) | 7.03 µM (inactive) | < 0.01 µM (active) | < 0.01 µM (active) | 1.11 µM (active) | 0.233 µM (active) | 0.333 µM (active) | 0.421 µM (active) | < 0.0147 µM (active) | 0.968 µM (active)
C/C(=C\c1ccccc1)C(O)C(=O)c1nc2ccc(Cl)cc2nc1O (stereo unspecified) | > 100 µM (inactive) | 55.2 µM (inactive) | > 100 µM (inactive) | > 100 µM (inactive) | > 100 µM (inactive) | > 100 µM (inactive) | > 100 µM (inactive) | > 100 µM (inactive) | > 100 µM (inactive) | > 100 µM (inactive) | 25.1 µM (inactive) | 92 µM (inactive) | 27 µM (inactive) | > 100 µM (inactive) | > 100 µM (inactive) | 48.3 µM (inactive) | 46.3 µM (inactive)
CCCn1cc2c(SC)nc(SC)nc2n1 | > 100 µM (inactive) | – | > 100 µM (inactive) | – | > 100 µM (inactive) | > 100 µM (inactive) | > 100 µM (inactive) | > 100 µM (inactive) | > 100 µM (inactive) | > 100 µM (inactive) | > 100 µM (inactive) | > 100 µM (inactive) | > 100 µM (inactive) | > 100 µM (inactive) | – | > 100 µM (inactive) | > 100 µM (inactive)
